Results published in ChEMBL document CHEMBL3585344, “Thiazole-based aminopyrimidines and N-phenylpyrazolines as potent antimicrobial agents: synthesis and biological evaluation” (2014).
In brackets after ≈: the same amount, converted by molar mass.

Columns and labels:
Candida albicans [1] = assay: Fungicidal activity against Candida albicans ATCC 10231 isolated from human after 72 hrs by microdilution method; assay type: functional
Aspergillus ochraceus [2] = assay: Fungicidal activity against Aspergillus ochraceus ATCC 12066 after 72 hrs by microdilution method; assay type: functional
Trichoderma viride [3] = assay: Antifungal activity against Trichoderma viride IAM 5061 after 72 hrs by microdilution method; assay type: functional; settings: IAM 5061, 72 h
Talaromyces funiculosus [4] = assay: Antifungal activity against Penicillium funiculosum ATCC 36839 after 72 hrs by microdilution method; assay type: functional; settings: ATCC 36839, 72 h
Aspergillus flavus [5] = assay: Antifungal activity against Aspergillus flavus ATCC 9643 after 72 hrs by microdilution method; assay type: functional; settings: ATCC 9643, 72 h
Penicillium ochrochloron [6] = assay: Antifungal activity against Penicillium ochrochloron ATCC 9112 after 72 hrs by microdilution method; assay type: functional; settings: ATCC 9112, 72 h
Aspergillus versicolor [7] = assay: Fungicidal activity against Aspergillus versicolor ATCC 11730 after 72 hrs by microdilution method; assay type: functional
Aspergillus versicolor [8] = assay: Antifungal activity against Aspergillus versicolor ATCC 11730 after 72 hrs by microdilution method; assay type: functional; settings: ATCC 11730, 72 h
Aspergillus niger [9] = assay: Antifungal activity against Aspergillus niger ATCC 6275 after 72 hrs by microdilution method; assay type: functional; settings: ATCC 6275, 72 h
Aspergillus ochraceus [10] = assay: Antifungal activity against Aspergillus ochraceus ATCC 12066 after 72 hrs by microdilution method; assay type: functional; settings: ATCC 12066, 72 h
Talaromyces funiculosus [11] = assay: Fungicidal activity against Penicillium funiculosum ATCC 36839 after 72 hrs by microdilution method; assay type: functional
Candida albicans [12] = assay: Antifungal activity against Candida albicans ATCC 10231 isolated from human after 72 hrs by microdilution method; assay type: functional; settings: ATCC 10231, 72 h
Aspergillus niger [13] = assay: Fungicidal activity against Aspergillus niger ATCC 6275 after 72 hrs by microdilution method; assay type: functional
Aspergillus fumigatus [14] = assay: Fungicidal activity against Aspergillus fumigatus isolated from human after 72 hrs by microdilution method; assay type: functional
Aspergillus flavus [15] = assay: Fungicidal activity against Aspergillus flavus ATCC 9643 after 72 hrs by microdilution method; assay type: functional
Penicillium ochrochloron [16] = assay: Fungicidal activity against Penicillium ochrochloron ATCC 9112 after 72 hrs by microdilution method; assay type: functional
Aspergillus fumigatus [17] = assay: Antifungal activity against Aspergillus fumigatus isolated from human after 72 hrs by microdilution method; assay type: functional
Trichoderma viride [18] = assay: Fungicidal activity against Trichoderma viride IAM 5061 after 72 hrs by microdilution method; assay type: functional
Micrococcus flavus [19] = assay: Antibacterial activity against Micrococcus flavus ATCC 10240 after 24 hrs by microdilution method; assay type: functional; settings: ATCC 10240, 24 h
Staphylococcus aureus [20] = assay: Bactericidal activity against Staphylococcus aureus ATCC 6538 after 72 hrs by microdilution method; assay type: functional
Staphylococcus aureus [21] = assay: Antibacterial activity against Staphylococcus aureus ATCC 6538 after 24 hrs by microdilution method; assay type: functional; settings: ATCC 6538, 24 h
Listeria monocytogenes [22] = assay: Bactericidal activity against Listeria monocytogenes NCTC 7973 after 72 hrs by microdilution method; assay type: functional
Salmonella typhimurium [23] = assay: Antibacterial activity against Salmonella typhimurium ATCC 13311 after 24 hrs by microdilution method; assay type: functional, Salmonella enterica subsp. enterica serovar Typhimurium; settings: Salmonella enterica, ATCC 13311, 24 h
Micrococcus flavus [24] = assay: Bactericidal activity against Micrococcus flavus ATCC 10240 after 72 hrs by microdilution method; assay type: functional
Pseudomonas aeruginosa [25] = assay: Antibacterial activity against Pseudomonas aeruginosa ATCC 27853 after 24 hrs by microdilution method; assay type: functional; settings: ATCC 27853, 24 h
Enterobacter cloacae [26] = assay: Antibacterial activity against Enterobacter cloacae ATCC 35030 isolated from human after 24 hrs by microdilution method; assay type: functional; settings: ATCC 35030, 24 h
Bacillus cereus [27] = assay: Bactericidal activity against Bacillus cereus clinical isolate after 72 hrs by microdilution method; assay type: functional
Escherichia coli [28] = assay: Antibacterial activity against Escherichia coli ATCC 35210 after 24 hrs by microdilution method; assay type: functional; settings: ATCC 35210, 24 h
Listeria monocytogenes [29] = assay: Antibacterial activity against Listeria monocytogenes NCTC 7973 after 24 hrs by microdilution method; assay type: functional; settings: NCTC 7973, 24 h
Salmonella typhimurium [30] = assay: Bactericidal activity against Salmonella typhimurium ATCC 13311 after 72 hrs by microdilution method; assay type: functional, Salmonella enterica subsp. enterica serovar Typhimurium
Enterobacter cloacae [31] = assay: Bactericidal activity against Enterobacter cloacae ATCC 35030 isolated from human after 72 hrs by microdilution method; assay type: functional
Escherichia coli [32] = assay: Bactericidal activity against Escherichia coli ATCC 35210 after 72 hrs by microdilution method; assay type: functional
Bacillus cereus [33] = assay: Antibacterial activity against Bacillus cereus clinical isolate after 24 hrs by microdilution method; assay type: functional
Pseudomonas aeruginosa [34] = assay: Bactericidal activity against Pseudomonas aeruginosa ATCC 27853 after 72 hrs by microdilution method; assay type: functional

| MIC (Trichoderma viride [3]) | MIC (Talaromyces funiculosus [4]) | MIC (Penicillium ochrochloron [6]) | MIC (Aspergillus versicolor [8]) | MIC (Aspergillus niger [9]) | MIC (Aspergillus ochraceus [10]) | MIC (Candida albicans [12]) | MIC (Aspergillus fumigatus [17]) | MIC (Micrococcus flavus [19]) | MIC (Staphylococcus aureus [21]) | SMILES | MFC99.5 (Candida albicans [1]) | MFC99.5 (Aspergillus ochraceus [2]) | MFC99.5 (Aspergillus versicolor [7]) | MFC99.5 (Talaromyces funiculosus [11]) | MFC99.5 (Aspergillus niger [13]) | MFC99.5 (Aspergillus fumigatus [14]) | MFC99.5 (Penicillium ochrochloron [16]) | MFC99.5 (Trichoderma viride [18]) | MBC99.5 (Staphylococcus aureus [20]) | MBC99.5 (Listeria monocytogenes [22]) | also measured |
| --- | --- | --- | --- | --- | --- | --- | --- | --- | --- | --- | --- | --- | --- | --- | --- | --- | --- | --- | --- | --- | --- |
| 287 µM (≈ 100 µg/mL) | 287 µM (≈ 100 µg/mL) | 143 µM (≈ 49.8 µg/mL) | 143 µM (≈ 49.8 µg/mL) | 143 µM (≈ 49.8 µg/mL) | 143 µM (≈ 49.8 µg/mL) | 172 µM (≈ 59.9 µg/mL) | 143 µM (≈ 49.8 µg/mL) | 115 µM (≈ 40.1 µg/mL) | 115 µM (≈ 40.1 µg/mL) | CNc1nc(C)c(C2=NN(c3ccccc3)C(c3ccccc3)C2)s1 (centres undefined) | 23 ×10⁻² umol/ml | 17.2 ×10⁻² umol/ml | 23 ×10⁻² umol/ml | 40.2 ×10⁻² umol/ml | 28.7 ×10⁻² umol/ml | 23 ×10⁻² umol/ml | 28.7 ×10⁻² umol/ml | 40.2 ×10⁻² umol/ml | 20.1 ×10⁻² umol/ml | 11.5 ×10⁻² umol/ml | MIC (Salmonella typhimurium [23]): 172 µM (≈ 59.9 µg/mL); MBC99.5 (Micrococcus flavus [24]): 23 ×10⁻² umol/ml; MIC (Pseudomonas aeruginosa [25]): 144 µM (≈ 50.2 µg/mL); MIC (Enterobacter cloacae [26]): 144 µM (≈ 50.2 µg/mL); MBC99.5 (Bacillus cereus [27]): 28.7 ×10⁻² umol/ml; MIC (Escherichia coli [28]): 172 µM (≈ 59.9 µg/mL); MIC (Listeria monocytogenes [29]): 57 µM (≈ 19.9 µg/mL); MBC99.5 (Salmonella typhimurium [30]): 28.7 ×10⁻² umol/ml; MBC99.5 (Enterobacter cloacae [31]): 20.1 ×10⁻² umol/ml; MBC99.5 (Escherichia coli [32]): 20.1 ×10⁻² umol/ml; MIC (Bacillus cereus [33]): 230 µM (≈ 80.1 µg/mL); MBC99.5 (Pseudomonas aeruginosa [34]): 45.9 ×10⁻² umol/ml |
| 127 µM (≈ 50 µg/mL) | 254 µM (≈ 99.9 µg/mL) | 254 µM (≈ 99.9 µg/mL) | 254 µM (≈ 99.9 µg/mL) | 254 µM (≈ 99.9 µg/mL) | 127 µM (≈ 50 µg/mL) | 305 µM (≈ 120 µg/mL) | 127 µM (≈ 50 µg/mL) | 127 µM (≈ 50 µg/mL) | 102 µM (≈ 40.1 µg/mL) | CNc1nc(C)c(C2=NN(c3ccccc3)C(c3ccc([N+](=O)[O-])cc3)C2)s1 (centres undefined) | 40.6 ×10⁻² umol/ml | 20.3 ×10⁻² umol/ml | 32.2 ×10⁻² umol/ml | 32.2 ×10⁻² umol/ml | 32.2 ×10⁻² umol/ml | 15.2 ×10⁻² umol/ml | 32.2 ×10⁻² umol/ml | 15.2 ×10⁻² umol/ml | 20.3 ×10⁻² umol/ml | 10.2 ×10⁻² umol/ml | MIC (Salmonella typhimurium [23]): 152 µM (≈ 59.8 µg/mL); MBC99.5 (Micrococcus flavus [24]): 20.3 ×10⁻² umol/ml; MIC (Pseudomonas aeruginosa [25]): 203 µM (≈ 79.9 µg/mL); MIC (Enterobacter cloacae [26]): 127 µM (≈ 50 µg/mL); MBC99.5 (Bacillus cereus [27]): 25.4 ×10⁻² umol/ml; MIC (Escherichia coli [28]): 178 µM (≈ 70 µg/mL); MIC (Listeria monocytogenes [29]): 76 µM (≈ 29.9 µg/mL); MBC99.5 (Salmonella typhimurium [30]): 25.4 ×10⁻² umol/ml; MBC99.5 (Enterobacter cloacae [31]): 20.3 ×10⁻² umol/ml; MBC99.5 (Escherichia coli [32]): 20.3 ×10⁻² umol/ml; MIC (Bacillus cereus [33]): 203 µM (≈ 79.9 µg/mL); MBC99.5 (Pseudomonas aeruginosa [34]): 25.4 ×10⁻² umol/ml |
| 126 µM (≈ 49.8 µg/mL) | 253 µM (≈ 100 µg/mL) | 253 µM (≈ 100 µg/mL) | 126 µM (≈ 49.8 µg/mL) | 253 µM (≈ 100 µg/mL) | 126 µM (≈ 49.8 µg/mL) | 253 µM (≈ 100 µg/mL) | 126 µM (≈ 49.8 µg/mL) | 126 µM (≈ 49.8 µg/mL) | 126 µM (≈ 49.8 µg/mL) | Cc1nc(-c2ccccc2)sc1C1=NN(c2ccccc2)C(c2ccccc2)C1 (centres undefined) | 30.4 ×10⁻² umol/ml | 20.2 ×10⁻² umol/ml | 15.2 ×10⁻² umol/ml | 32.2 ×10⁻² umol/ml | 32.2 ×10⁻² umol/ml | 15.2 ×10⁻² umol/ml | 32.2 ×10⁻² umol/ml | 25.3 ×10⁻² umol/ml | 20.2 ×10⁻² umol/ml | 10.1 ×10⁻² umol/ml | MIC (Salmonella typhimurium [23]): 202 µM (≈ 79.9 µg/mL); MBC99.5 (Micrococcus flavus [24]): 20.2 ×10⁻² umol/ml; MIC (Pseudomonas aeruginosa [25]): 152 µM (≈ 60.1 µg/mL); MIC (Enterobacter cloacae [26]): 126 µM (≈ 49.8 µg/mL); MBC99.5 (Bacillus cereus [27]): 30.4 ×10⁻² umol/ml; MIC (Escherichia coli [28]): 101 µM (≈ 39.9 µg/mL); MIC (Listeria monocytogenes [29]): 76 µM (≈ 30.1 µg/mL); MBC99.5 (Salmonella typhimurium [30]): 25.3 ×10⁻² umol/ml; MBC99.5 (Enterobacter cloacae [31]): 17.7 ×10⁻² umol/ml; MBC99.5 (Escherichia coli [32]): 17.7 ×10⁻² umol/ml; MIC (Bacillus cereus [33]): 152 µM (≈ 60.1 µg/mL); MBC99.5 (Pseudomonas aeruginosa [34]): 25.3 ×10⁻² umol/ml |

| SMILES | MIC (Trichoderma viride [3]) | MIC (Talaromyces funiculosus [4]) | MIC (Penicillium ochrochloron [6]) | MIC (Aspergillus versicolor [8]) | MIC (Aspergillus niger [9]) | MIC (Aspergillus ochraceus [10]) | MIC (Candida albicans [12]) | MIC (Aspergillus fumigatus [17]) | MIC (Micrococcus flavus [19]) | MIC (Staphylococcus aureus [21]) | MFC99.5 (Candida albicans [1]) | MFC99.5 (Aspergillus ochraceus [2]) | MFC99.5 (Aspergillus versicolor [7]) | MFC99.5 (Talaromyces funiculosus [11]) | MFC99.5 (Aspergillus niger [13]) | MFC99.5 (Aspergillus fumigatus [14]) | MFC99.5 (Penicillium ochrochloron [16]) | MFC99.5 (Trichoderma viride [18]) | MBC99.5 (Staphylococcus aureus [20]) | MBC99.5 (Listeria monocytogenes [22]) | also measured |
| --- | --- | --- | --- | --- | --- | --- | --- | --- | --- | --- | --- | --- | --- | --- | --- | --- | --- | --- | --- | --- | --- |
| c1ccc(-c2ccc(C(c3ccccc3)n3ccnc3)cc2)cc1 (centres undefined) [BIFONAZOLE] | 640 µM (≈ 199 µg/mL) | 640 µM (≈ 199 µg/mL) | 480 µM (≈ 149 µg/mL) | 480 µM (≈ 149 µg/mL) | 480 µM (≈ 149 µg/mL) | 480 µM (≈ 149 µg/mL) | 322 µM (≈ 99.9 µg/mL) | 480 µM (≈ 149 µg/mL) |  |  | 48.3 ×10⁻² umol/ml | 80 ×10⁻² umol/ml | 64 ×10⁻² umol/ml | 80 ×10⁻² umol/ml | 64 ×10⁻² umol/ml | 64 ×10⁻² umol/ml | 64 ×10⁻² umol/ml | 80 ×10⁻² umol/ml |  |  | MIC (Aspergillus flavus [5]): 480 µM (≈ 149 µg/mL); MFC99.5 (Aspergillus flavus [15]): 64 ×10⁻² umol/ml |
